Several values for one entry are separate records, joined by “and”; a condition that tells them apart may be missing. Identical values can stand only once.
Assays:
[1] = tested on: Chlorella sorokiniana; assay: Malathion twelve day growth study: biomass and growth rates; assay type: cell-based, Chlorella sorokiniana (UTEX 2805)
Protocol: • Analysis of growth parameters: Chlorophyll a was estimated following the method of Porra et al., (1989) Biochem. Biophys. Acta 975, 384-394. Biomass estimations were performed by filtering the cultures through pre-dried and weighed Whatman GF/C glass fiber filters (4.7 cm diameter; 1.2 μm pore size). After washing with 0.65 M ammonium formate, filters were then dried at 60° C. overnight and cooled in a desiccant pouch before re-weighing. Specific growth rates, divisions per day, and generation times were estimated based upon biomass data for days 6 to 9 and days 9 to 12 using the following equations:
Specific growth rate (μ, d^−1)=ln(N2/N1)/(t2−t1)
Divisions per day (Div.day^−1)=μ/ln2
Generation time (d)=1/Div.day^−1
Where N1 and N2=biomass at time 1 (t1) and time 2 (t2), respectively.
(§1) • Test strain: Chlorella sorokiniana (UTEX 2805) was obtained from UTEX Culture Collections and maintained in BG11 medium (Stanier et al., (1971) Bacteria Rev. 35: 171-205, incorporated herein in its entirety). The pH of culture medium was adjusted to 7.5±0.2 before inoculation and the alga was maintained in a temperature controlled growth chamber at 25±1° C. and 100±10 μmol m^−2 s^−1 light intensity with 12/12 h L/D cycle provided by cool white fluorescent (6500 K) T-8 bulbs. • Pesticide: A twelve day time-scale growth study was conducted to evaluate the effect of pesticide toxicity on algal growth and metabolism. The pesticide malathion (Spectracide, 50% v/v) was used and added to fresh BG11 medium to obtain final concentrations of 70, 140, 280 and 560 mg of malathion L^−1 for the treatments. […] After sterilization, C. sorokiniana was added as inoculum to obtain an initial biomass concentration of 0.075 g L^−1 in all the treatments in triplicates. The cultures were incubated in the growth chamber as explained above. For each sampling period, three randomly chosen flasks of each treatment were removed and then refrigerated at 4° C. until further analysis.

[2] = tested on: Chlorella sorokiniana; assay: Malathion growth study: neutral lipid content; assay type: cell-based, Chlorella sorokiniana (UTEX 2805); conditions: for increase in lipid production over the control: day 6
Protocol: • Biomass Composition: Neutral lipids were estimated using an Ankom XT10 automated extractor (Chinnasamy et al., (2010) Bioresource Technol. 101: 3097-3105). Lipid content was measured gravimetrically using hexane as solvent. The same filters used for the biomass measurements (from 25 mL of culture) were used for the lipid estimation as they provided the initial weight of biomass (W1). The filters were then placed into Ankom XT4 extraction bags, sealed with the impulse sealer and then autoclaved at 121° C. for 15 min. After drying, the extraction bags were placed in a resealable plastic bag with desiccant material while each individual bag was removed and carefully weighed (W2). Extraction bags were then placed into the Ankom extractor and extraction was performed for 2 h at 105° C. with hexane as solvent. Bags were then transferred to a forced-air oven and dried at 60° C. overnight, then cooled in a dessicator and weighed (W3). The following equation was used to calculate the lipid content of algal samples:
as §1

[3] = T1, 70 mg malathion L^−1, day 6 to 9
[4] = T1, 70 mg malathion L^−1, day 9 to 12
[5] = T2, 140 mg malathion L^−1, day 6 to 9
[6] = T2, 140 mg malathion L^−1, day 9 to 12

CCOC(=O)CC(SP(=S)(OC)OC)C(=O)OCC (stereo not drawn) [malathion, 2-(dimethoxyphosphinothioylthio)butanedioic acid diethyl ester] was tested, and the “malathion concentration the alga can withstand / tolerated” value [1] was “up to 140 mg L^−1”, the “time within which the alga could metabolize the pesticide and overcome the stress” value ([1]; 70 mg malathion L^−1) was at most 6 days and the inhibition in biomass ([1]; 70 mg malathion L^−1, day 3) was 25%. For the same molecule, the inhibition in biomass ([1]; 70 mg malathion L^−1, day 6) was 37%, the inhibition in biomass ([1]; 70 mg malathion L^−1, day 9) was 35% and the inhibition in biomass ([1]; 70 mg malathion L^−1, day 12) was 18%. The “time within which the alga could metabolize the pesticide and overcome the stress” value ([1]; 140 mg malathion L^−1) was at most 9 days, the inhibition of biomass ([1]; 140 mg malathion L^−1, day 3) was 35% and the inhibition of biomass ([1]; 140 mg malathion L^−1, day 6) was 60%. The inhibition of biomass ([1]; 140 mg malathion L^−1, day 9) was 68%, the inhibition of biomass ([1]; 140 mg malathion L^−1, day 12) was 49% and the “effect on growth of the alga, in words” value ([1]; 270 mg malathion L^−1) was “lethal”. For the same molecule, the “effect on growth of the alga, in words” value ([1]; 280 mg malathion L^−1 (T3)) was “lethal”, the inhibition of biomass ([1]; 280 mg malathion L^−1, day 3) was 48% and the inhibition of biomass ([1]; 280 mg malathion L^−1, day 6) was 78%. The inhibition of biomass ([1]; 280 mg malathion L^−1, day 9) was 89%, the inhibition of biomass ([1]; 280 mg malathion L^−1, day 12) was 100% and the “effect on growth of the alga, in words” value ([1]; 540 mg malathion L^−1) was “lethal”. The “effect on growth of the alga, in words” value ([1]; 560 mg malathion L^−1 (T4)) was “lethal effects”, the Divisions per day [1, 3] was 0.23 and the Generation time [1, 3] was 4.4 days. The “Increase in biomass production” value [1, 3] was 1.61 times, the “Specific growth rate (μ)” value [1, 3] was 0.16 day⁻¹ and the “Δ Biomass” value [1, 3] was 0.103 g/L. For the same molecule, the Divisions per day [1, 4] was 0.27, the Generation time [1, 4] was 3.7 days and the “Increase in biomass production” value [1, 4] was 1.8 times and 1.76 times. For the same molecule, the “Specific growth rate (μ)” value [1, 4] was 0.19 day⁻¹, the “Δ Biomass” value [1, 4] was 0.206 g/L and the Divisions per day [1, 5] was 0.12. The Generation time [1, 5] was 8.7 days, the “Increase in biomass production” value [1, 5] was 1.27 times and the “Specific growth rate (μ)” value [1, 5] was 0.08 day⁻¹. The “Δ Biomass” value [1, 5] was 0.029 g/L, the Divisions per day [1, 6] was 0.38 and the Generation time [1, 6] was 2.6 days. For the same molecule, the “Increase in biomass production” value [1, 6] was 2.2 times and 2.20 times, the “Specific growth rate (μ)” value [1, 6] was 0.26 day⁻¹ and the “Δ Biomass” value [1, 6] was 0.163 g/L. For the same molecule, the “increase in lipid production over the control” value (from here on “increase … over the control”) ([2]; 70 mg malathion L^−1) was 70%, the “increase in lipid over control” value ([2]; 70 mg malathion L^−1, day 9) was 42% and the “increase … over the control” value ([2]; 140 mg malathion L^−1) was 110%. The “increase in lipid over control” value ([2]; 140 mg malathion L^−1, day 9) was 119%, the “increase in lipid content over control” value ([2]; 140 mg malathion L^−1, day 12) was 25% and the “increase … over the control” value ([2]; 280 mg malathion L^−1) was 325%. The “increase in lipid over control” value ([2]; 280 mg malathion L^−1, day 9) was 212%, the “increase in lipid content of the cells with respect to day 3” value (“increase in lipid content of the cells” below) ([2]; T1, 70 mg malathion L^−1, day 9, control 97%) was 193% and the “increase in lipid content of the cells” value ([2]; T1, 70 mg malathion L^−1, day 12, control 287%) was 406%. The “increase in lipid content of the cells” value ([2]; T2, 140 mg malathion L^−1, day 9, control 97%) was 150%, the “increase in lipid content of the cells” value ([2]; T2, 140 mg malathion L^−1, day 12, control 287%) was 574% and the “increase in lipid production” value ([2]; concentrations ranging from 70-280 mg L^−1 in the growth medium) was 70-325%.
